Source: patent US20240109895A1, “OXASPIRO SUBSTITUTED PYRROLOPYRAZOLE DERIVATIVE, INTERMEDIATE THEREOF, AND PREPARATION METHOD THEREFOR” (SHANGHAI HAIYAN PHARMACEUTICAL TECHNOLOGY CO., LTD., priority 2020, published 2024)

Assays:
cAMP = assay: HTRF-cAMP cell assay
β-arrestin = β-arrestin cell assay

Compound: CC(C)[C@@H]1C[C@H](NCC[C@@]2(c3ccccn3)CCOC3(CCCC3)C2)c2ccnn21 [Compound I-1]
- EC50 (cAMP; 0.75 h, read-out: cAMP EC50(nM)): 6 nM
- Emax (cAMP; read-out: cAMP Emax(%) Morphine is 100%): 86.4%
- Emax (β-arrestin; 1.5 h, read-out: β-arrestin Emax(%) Morphine is 100%): 1.3%
- bias (cAMP versus β-arrestin) (β-arrestin; comparison of Table 1 and Table 2): good bias
